Test results taken from patent US12655106B2 (Eikonizo Therapeutics, Inc., priority 2021, dated 2026).
pIC50: −log10 of the molar value.

How the values were obtained:
Full length Human HDAC6 = molecular target: T1, Full length Human HDAC6 (Homo sapiens, UniProt Q9UBN7); experiment: Caliper endpoint assay for HDAC enzymatic activity (HDAC6); assay type: biochemical; conditions: for pIC50: in vitro enzymatic, Caliper endpoint assay, 30 min pre-incubation, 1 μM substrate peptide; for Selectivity (6 v 8): ratio of HDAC8 IC50/HDAC6 IC50
T1 construct: Full length Human HDAC6; FLAG (C); host or cells: baculovirus expression system
T1 sequence (Q9UBN7 1-1215): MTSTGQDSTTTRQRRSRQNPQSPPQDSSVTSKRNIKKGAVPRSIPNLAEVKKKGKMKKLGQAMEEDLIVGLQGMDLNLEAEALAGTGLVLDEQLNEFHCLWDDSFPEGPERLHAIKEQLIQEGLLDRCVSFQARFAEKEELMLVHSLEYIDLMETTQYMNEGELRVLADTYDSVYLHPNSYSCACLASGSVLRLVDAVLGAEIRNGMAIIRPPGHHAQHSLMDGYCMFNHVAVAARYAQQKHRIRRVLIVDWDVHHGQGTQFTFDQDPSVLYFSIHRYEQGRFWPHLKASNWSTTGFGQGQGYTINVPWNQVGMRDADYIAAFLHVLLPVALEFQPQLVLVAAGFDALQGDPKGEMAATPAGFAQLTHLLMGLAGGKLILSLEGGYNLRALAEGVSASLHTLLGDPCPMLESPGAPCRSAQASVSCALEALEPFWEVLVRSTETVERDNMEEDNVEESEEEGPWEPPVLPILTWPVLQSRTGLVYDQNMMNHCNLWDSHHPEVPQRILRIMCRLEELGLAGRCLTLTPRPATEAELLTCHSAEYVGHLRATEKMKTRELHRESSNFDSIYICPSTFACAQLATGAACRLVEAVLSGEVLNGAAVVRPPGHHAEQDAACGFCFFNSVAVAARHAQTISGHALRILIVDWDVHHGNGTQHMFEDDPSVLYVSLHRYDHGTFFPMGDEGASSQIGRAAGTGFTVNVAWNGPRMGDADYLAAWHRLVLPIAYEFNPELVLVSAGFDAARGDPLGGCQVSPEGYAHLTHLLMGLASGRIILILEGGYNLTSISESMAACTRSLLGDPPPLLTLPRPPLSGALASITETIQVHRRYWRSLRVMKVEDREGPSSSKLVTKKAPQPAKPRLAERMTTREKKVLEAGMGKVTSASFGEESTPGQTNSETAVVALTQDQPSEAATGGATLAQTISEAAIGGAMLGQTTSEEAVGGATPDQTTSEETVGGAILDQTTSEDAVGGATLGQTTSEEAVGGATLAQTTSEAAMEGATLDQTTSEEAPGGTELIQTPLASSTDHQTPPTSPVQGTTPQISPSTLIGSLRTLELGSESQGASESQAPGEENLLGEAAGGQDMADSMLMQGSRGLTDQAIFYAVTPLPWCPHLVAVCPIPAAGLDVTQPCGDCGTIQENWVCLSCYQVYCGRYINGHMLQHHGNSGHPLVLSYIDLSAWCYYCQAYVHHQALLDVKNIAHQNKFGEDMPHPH

Full length Human HDAC8 = molecular target: T2, Full length Human HDAC8 (Homo sapiens, UniProt Q9BY41); experiment: Caliper endpoint assay for HDAC enzymatic activity (HDAC8); assay type: biochemical; conditions: in vitro enzymatic, 30 min pre-incubation, 1 μM substrate peptide
T2 construct: Full length Human HDAC8; HIS (N); host or cells: baculovirus expression system
T2 sequence (Q9BY41 1-377): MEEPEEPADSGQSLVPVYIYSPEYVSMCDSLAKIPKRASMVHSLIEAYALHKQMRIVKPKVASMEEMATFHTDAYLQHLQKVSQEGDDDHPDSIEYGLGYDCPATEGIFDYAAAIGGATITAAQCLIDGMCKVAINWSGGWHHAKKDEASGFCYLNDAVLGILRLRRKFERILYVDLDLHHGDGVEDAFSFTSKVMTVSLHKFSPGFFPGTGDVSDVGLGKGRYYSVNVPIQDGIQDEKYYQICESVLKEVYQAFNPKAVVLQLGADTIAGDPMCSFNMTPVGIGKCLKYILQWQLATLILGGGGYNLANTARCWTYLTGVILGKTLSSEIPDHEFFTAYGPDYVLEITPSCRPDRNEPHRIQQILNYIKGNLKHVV

Row | SMILES | pIC50 (Full length Human HDAC6) | Selectivity (6 v 8) (Full length Human HDAC6) | pIC50 (Full length Human HDAC8)
1 | O=C(NO)c1cc(F)c2c(c1)CCN(C1CC3(CCCO3)C1)C2 (single isomer, unassigned) [Compound 191, 8-fluoro-N-hydroxy-2-(5-oxaspiro[3.4]octan-2-yl)-1,2,3,4-tetrahydroisoquinoline-6-carboxamide] | 7.00 to 9.00 | IV (IV: >100-1000) | 4.00 to 5.00
2 | CC(C)N1CC2(CCCCC2)CC[C@@H]1Cc1cc(F)cc(C(=O)NO)c1 (single isomer, unassigned) [Compound 275] | 5.00 to 6.00 | I (I: 0.1-1) | 5.00 to 6.00
3 | O=C(NO)c1ccc2c(c1)C[C@@H]1COCCN1C2 [Compound 131] | 6.00 to 7.00 | III (III: >10-100) | 5.00 to 6.00
4 | O=C(NO)c1cc(F)c2c(c1)CCN(C1CCC13CNC3)C2 (centres unmarked) [Compound 301, 2-(2-azaspiro[3.3]heptan-7-yl)-8-fluoro-3,4-dihydro-1H-isoquinoline-6-carbohydroxamic acid] | 7.00 to 9.00 | IV (IV: >100-1000) | 5.00 to 6.00
5 | CC[C@@H]1Cc2c(F)cc(C(=O)NO)cc2CN1C[C@H]1CCCCO1 (single isomer, unassigned) [Compound 230] | 7.00 to 9.00 | III (III: >10-100) | 5.00 to 6.00
6 | O=C(NO)c1cc(F)c2c(c1)CCN(C1CC3(CCOC3)C1)C2 (single isomer, unassigned) [Compound 189, 8-fluoro-N-hydroxy-2-(6-oxaspiro[3.4]octan-2-yl)-1,2,3,4-tetrahydroisoquinoline-6-carboxamide] | 7.00 to 9.00 | IV (IV: >100-1000) | 4.00 to 5.00
7 | CN1CC[C@@]2(CC[C@@H]2N2CCc3cc(C(=O)NO)cc(F)c3C2)C1 (single isomer, unassigned) [Compound 329] | 7.00 to 9.00 | III (III: >10-100) | 5.00 to 6.00
8 | CC[C@H]1Cc2c(F)cc(C(=O)NO)cc2CN1CC1CC2CCC(C1)N2C1CC1 (single isomer, unassigned) [Compound 576] | 7.00 to 9.00 | IV (IV: >100-1000) | 5.00 to 6.00
9 | CC(=O)N1CC2(CCC2N2CCc3cc(C(=O)NO)cc(F)c3C2)C1 (centres unmarked) [Compound 304, 2-(2-acetyl-2-azaspiro[3.3]heptan-7-yl)-8-fluoro-3,4-dihydro-1H-isoquinoline-6-carbohydroxamic acid] | 7.00 to 9.00 | IV (IV: >100-1000) | 5.00 to 6.00
10 | CC[C@H]1Cc2c(F)cc(C(=O)NO)cc2CN1CC1COC1 (single isomer, unassigned) [Compound 216] | 7.00 to 9.00 | V (V: >1000) | < 4.00
11 | CC[C@H]1CCCN1Cc1ccc(C(=O)NO)cc1F [Compound 49] | 6.00 to 7.00 | – | 5.00 to 6.00
12 | O=C(NO)c1cc(F)c2c(c1)C[C@@H]1CCCCN1C2 [Compound 93] | 7.00 to 9.00 | IV (IV: >100-1000) | 5.00 to 6.00
13 | O=C(NO)c1cc(F)c2c(c1)CCN(C1CCC13COC3)C2 (centres unmarked) [Compound 300, 8-fluoro-2-(2-oxaspiro[3.3]heptan-7-yl)-3,4-dihydro-1H-isoquinoline-6-carbohydroxamic acid] | 7.00 to 9.00 | IV (IV: >100-1000) | 5.00 to 6.00
14 | O=C(NO)c1cc(F)c2c(c1)CCN([C@H]1CC[C@@]13CCOC3)C2 (single isomer, unassigned) [Compound 315] | 7.00 to 9.00 | IV (IV: >100-1000) | 4.00 to 5.00

Second part, the compound after the results:

Row | pIC50 (Full length Human HDAC6) | Selectivity (6 v 8) (Full length Human HDAC6) | pIC50 (Full length Human HDAC8) | SMILES
15 | 7.00 to 9.00 | IV (IV: >100-1000) | 4.00 to 5.00 | CC[C@H]1Cc2c(F)cc(C(=O)NO)cc2CN1C[C@@]12C[C@@H](CO1)N(C)C2 (single isomer, unassigned) [Compound 553]
16 | 6.00 to 7.00 | III (III: >10-100) | 4.00 to 5.00 | CC[C@@H]1Cc2c(F)cc(C(=O)NO)cc2CN1CC1C2CC1CN(C)C2 (single isomer, unassigned) [Compound 530]
17 | 7.00 to 9.00 | III (III: >10-100) | 5.00 to 6.00 | CC[C@@H]1Cc2c(F)cc(C(=O)NO)cc2CN1CC1CCCCC1 (single isomer, unassigned) [Compound 517]
18 | 6.00 to 7.00 | IV (IV: >100-1000) | 4.00 to 5.00 | CC[C@H]1Cc2c(F)cc(C(=O)NO)cc2CN1C1CC2(CCN(C3CC3)CC2)C1 (single isomer, unassigned) [Compound 599]
19 | 7.00 to 9.00 | IV (IV: >100-1000) | 5.00 to 6.00 | CN1CCC2(CC1)CC(CN1CCc3cc(C(=O)NO)cc(F)c3C1)C2 [Compound 469, 8-fluoro-2-[(7-methyl-7-azaspiro[3.5]nonan-2-yl)methyl]-3,4-dihydro-1H-isoquinoline-6-carbohydroxamic acid]
20 | 7.00 to 9.00 | IV (IV: >100-1000) | 5.00 to 6.00 | O=C(NO)c1cc(F)c2c(c1)CCN([C@H]1CCNC3(CCC3)C1)C2 (single isomer, unassigned) [Compound 435]
21 | 7.00 to 9.00 | IV (IV: >100-1000) | 4.00 to 5.00 | CC[C@H]1Cc2c(F)cc(C(=O)NO)cc2CN1C[C@]12C[C@H](CO1)N(C)C2 (single isomer, unassigned) [Compound 552]
22 | 7.00 to 9.00 | IV (IV: >100-1000) | 4.00 to 5.00 | CN1CCC[C@]2(CC[C@@H]2N2CCc3cc(C(=O)NO)cc(F)c3C2)C1 (single isomer, unassigned) [Compound 365]
23 | 7.00 to 9.00 | IV (IV: >100-1000) | 4.00 to 5.00 | O=C(NO)c1cc(F)c2c(c1)CCN([C@H]1CCOC3(CCC3)C1)C2 (single isomer, unassigned) [Compound 445]
24 | 7.00 to 9.00 | IV (IV: >100-1000) | 4.00 to 5.00 | O=C(NO)c1cc(F)c2c(c1)CCN(C1CCC3(CNC3)C1)C2 (centres unmarked) [Compound 388, 8-fluoro-N-hydroxy-2-(2-azaspiro[3.4]octan-6-yl)-1,2,3,4-tetrahydroisoquinoline-6-carboxamide]
25 | 6.00 to 7.00 | IV (IV: >100-1000) | 4.00 to 5.00 | [2H]c1cc2c(cc1C(=O)NO)CCN(C1CC3(CCCCC3)C1)C2 [Compound 504, N-hydroxy-2-(spiro[3.5]nonan-2-yl)-1,2,3,4-tetrahydroisoquinoline-7-d-6-carboxamide]
26 | 7.00 to 9.00 | IV (IV: >100-1000) | 4.00 to 5.00 | O=C(NO)c1cc(F)c2c(c1)CCN([C@H]1C[C@]3(CCCNC3)C1)C2 (single isomer, unassigned) [Compound 341, 8-fluoro-N-hydroxy-2-((2r,4s)-6-azaspiro[3.5]nonan-2-yl)-1,2,3,4-tetrahydroisoquinoline-6-carboxamide]
27 | 7.00 to 9.00 | IV (IV: >100-1000) | 4.00 to 5.00 | CN1CCC[C@]2(C1)C[C@@H](N1CCc3cc(C(=O)NO)cc(F)c3C1)C2 (single isomer, unassigned) [Compound 343, 8-fluoro-N-hydroxy-2-((2r,4s)-6-methyl-6-azaspiro[3.5]nonan-2-yl)-1,2,3,4-tetrahydroisoquinoline-6-carboxamide]
28 | 7.00 to 9.00 | IV (IV: >100-1000) | 4.00 to 5.00 | CN1CC[C@@]2(CC[C@@H](N3CCc4cc(C(=O)NO)cc(F)c4C3)C2)C1 (single isomer, unassigned) [Compound 404]
